Assay results as given in patent US20240174744A1, “METHODS OF TREATMENT USING PROTEIN BINDERS TO IRHOM2 EPITOPES” (SCIRHOM GMBH, priority 2021, published 2024).

Tested on: PMA-induced release of IL-6R from U-937 cells
Assay: ELISA-based IL-6R release assay, PMA-stimulated U-937 cells
Format: cell-based
Conditions: Homo sapiens, U-937, 1 h, Batimastat 10 μM, PMA 62.5 ng/ml
Description: Complementary to Example 26 described above, ELISA-based IL-6R release assays were performed to verify the inhibitory effects of the antibodies of the present disclosure on PMA-induced release of endogenous IL-6R from human U-937 cells.
In brief, on day 1, Nunc black MaxiSorp® 96-well plates (Thermo Fisher Scientific, USA) were coated overnight with 100 μl per well of mouse anti-human IL-6R capture antibody (provided as part of the DuoSet ELISA kit) at 2 μg/ml TBS at 4° C. On day 2, the capture antibody solution was removed and MaxiSorp® plates were blocked with 300 μl per well of TBS, 1% BSA at room temperature for 1-2 hours. […] Using an infinite M1000 (Tecan Group, Switzerland) microplate reader, the fluorescence of each well was collected at an excitation wavelength of 435 nm and an emission wavelength of 555 nm. […]

## CNC(=O)[C@H](Cc1ccccc1)NC(=O)[C@H](CC(C)C)[C@H](CSc1cccs1)C(=O)NO [Batimastat]
Murine (m) and chimeric (ch) antibodies 3 μg/ml
  inhibition at 10 µM: 91.6%
Recombinant murine antibodies 1 μg/ml
  inhibition at 10 µM: 86.6%
